Test results taken from paper PMC8374649, “IBI362 (LY3305677), a weekly-dose GLP-1 and glucagon receptor dual agonist, in Chinese adults with overweight or obesity: A randomised, placebo-controlled, multiple ascending dose phase 1b study” (EClinicalMedicine, 2021).

Test system: Chinese adults with overweight or obesity
Assay: Safety and tolerability (treatment emergent adverse events), multiple ascending dose phase 1b study
Type: in vivo, human
Settings: n = 8
Experimental: The study included a 3-week screening period, a 12-week treatment period and an 8-week safety follow-up period. During the 12-week treatment period, the dose of IBI362 or placebo was escalated within each cohort according to one of the three dose-escalation schedules (Fig. S1). The dose-escalation regimen for the 3.0 mg cohort was 1.0 mg for 4 weeks, followed by 2.0 mg for 4 weeks and then 3.0 mg for the final 4 weeks. The dose-escalation regimen for the 4.5 mg cohort was 1.5 mg for 4 weeks, followed by 3.0 mg for 4 weeks and then 4.5 mg for the final 4 weeks. The dose-escalation regimen for the 6.0 mg cohort was 2.0 mg for 4 weeks, followed by 4.0 mg for 4 weeks and then 6.0 mg for the final 4 weeks. The 6.0 mg cohort started dosing after tolerability evaluation of 1.5 mg dosing in the 4.5 mg cohort. The internal unblinded safety monitoring group was responsible for the safety monitoring. All treatments were subcutaneously administered once a week. Investigators and authorized study personnel in each centre recorded the study data into the electronic case report forms (eCRFs), which were reviewed and validated by clinical research associates (CRAs). The data in the eCRFs were submitted to the electronic data capture (EDC) database. HbA1c, fasting plasma glucose and fasting insulin tests were performed in a central lab (Wuxi AppTec Inc.).
The primary endpoints of the study were safety and tolerability of IBI362. Adverse events (AEs) were categorised according to the Medical Dictionary for Regulatory Activities system organ class and preferred terms. Treatment emergent adverse events (TEAEs) and serious adverse events were monitored in all participants throughout the treatment period and the safety follow-up period. The severity of the AEs (mild, moderate or severe) and the association between an AE and the study drug was assessed by investigators based on pre-specified criteria.
Safety analyses were done in the safety population (defined as all participants who received at least one dose of the study treatment). Pharmacokinetic analyses were done in the pharmacokinetic population (defined as all participants who received at least one dose of IBI362 and had at least one valid plasma concentration assessment). Pharmacodynamic analyses were done in the pharmacodynamic population (defined as all participants who received at least one dose of the study treatment and had baseline and at least one valid assessment). Efficacy analyses were done in the efficacy population (defined as all participants who received at least one dose of the study treatment and had at least one post-baseline assessment).

[1] = 3.0 mg cohort (1.0-2.0-3.0 mg sc once weekly, 4 weeks each)
[2] = 4.5 mg cohort (1.5-3.0-4.5 mg sc once weekly, 4 weeks each)

CC(C)C[C@H](NC(=O)[C@H](CC(C)C)NC(=O)[C@H](Cc1c[nH]c2ccccc12)NC(=O)[C@H](CCC(=O)O)NC(=O)[C@@H](NC(=O)[C@H](Cc1ccccc1)NC(=O)[C@H](CCC(=O)O)NC(=O)[C@H](CCCCNC(=O)COCCOCCNC(=O)COCCOCCNC(=O)CC[C@H](NC(=O)CCCCCCCCCCCCCCCCCCC(=O)O)C(=O)O)NC(=O)[C@H](C)NC(=O)[C@H](CCCCN)NC(=O)[C@H](CCCCN)NC(=O)[C@H](CCC(=O)O)NC(=O)[C@H](CC(=O)O)NC(=O)[C@H](CC(C)C)NC(=O)[C@H](Cc1ccc(O)cc1)NC(=O)[C@H](CCCCN)NC(=O)[C@H](CO)NC(=O)[C@H](Cc1ccc(O)cc1)NC(=O)[C@H](CC(=O)O)NC(=O)[C@H](CO)NC(=O)[C@@H](NC(=O)[C@H](Cc1ccccc1)NC(=O)[C@@H](NC(=O)CNC(=O)[C@H](CCC(N)=O)NC(=O)C(C)(C)NC(=O)[C@@H](N)Cc1c[nH]cn1)[C@@H](C)O)[C@@H](C)O)C(C)C)C(=O)N[C@@H](CCC(=O)O)C(=O)NCC(=O)NCC(=O)N1CCC[C@H]1C(=O)N[C@@H](CO)C(=O)N[C@@H](CO)C(=O)NCC(N)=O [IBI362]
6 (75.0) n (%): TEAE (individuals with ≥ 1 TEAE) [1] | Metabolism and nutrition disorders (system organ class) [2]
0 n (%): Abdominal pain [1] | Blood glucose increased [1] | Diarrhea [1] | Dry mouth [1] | Dyslipidaemia [1] | Dyspepsia [1] | Fatigue [1] | Folliculitis [1] | Hiccups [1] | Hyperlipidaemia [1] | Hyperuricaemia [1] | Hypoglycaemia event [1] | Investigations (system organ class) [1] | Menstruation irregular [1] | Mental fatigue [1] | Myocardial ischemia [1] | Nausea [1] | Neutrophil count increased [1] | Oropharyngeal pain [1] | Proteinuria [1] | Psychiatric disorders (system organ class) [1] | Respiratory, thoracic and mediastinal disorders (system organ class) [1] | Serious adverse event [1] | Sinus tachycardia [1] | Starvation [1] | Thermal burn [1] | White blood cell count increased [1] | Abdominal distension [2] | Atrioventricular block first degree [2] | Back pain [2] | Blood glucose increased [2] | Calculus urinary [2] | Constipation [2] | Dysmenorrhoea [2] | Dyspepsia [2] | Folliculitis [2] | Gastrointestinal AE, Moderate [2] | Gastrointestinal inflammation [2] | Hiccups [2] | Hyperlipidaemia [2] | Hypoglycaemia event [2] | Menstruation irregular [2] | Mouth ulceration [2] | Musculoskeletal and connective tissue disorders (system organ class) [2]
1 (12.5) n (%): Abdominal distension [1] | Atrioventricular block first degree [1] | Back pain [1] | Calculus urinary [1] | Cardiac disorders (system organ class) [1] | Constipation [1] | Decreased appetite [1] | Dysmenorrhoea [1] | Gastrointestinal AE, Moderate [1] | Gastrointestinal inflammation [1] | General disorders and administration site conditions (system organ class) [1] | Injury, poisoning and procedural complications (system organ class) [1] | Metabolism and nutrition disorders (system organ class) [1] | Mouth ulceration [1] | Musculoskeletal and connective tissue disorders (system organ class) [1] | Nasopharyngitis [1] | Pyrexia [1] | Renal and urinary disorders (system organ class) [1] | Reproductive system and breast disorders (system organ class) [1] | Skin and subcutaneous tissue disorders (system organ class) [1] | Soft tissue injury [1] | Tonsillitis [1] | Urticaria [1] | Vomiting [1] | Dyslipidaemia [2] | Fatigue [2] | General disorders and administration site conditions (system organ class) [2] | Hyperuricaemia [2] | Injury, poisoning and procedural complications (system organ class) [2] | Investigations (system organ class) [2] | Mental fatigue [2]
5 (62.5) n (%): Decreased appetite [2] | Gastrointestinal AE [2] | Gastrointestinal AE, Mild [2] | Gastrointestinal disorders (system organ class) [2]
4 (50.0) n (%): Gastrointestinal disorders (system organ class) [1] | Infections and infestations (system organ class) [1]
3 (37.5) n (%): Treatment-related AE [1] | Diarrhea [2]
2 (25.0) n (%): Gastrointestinal AE, Mild [1] | Upper respiratory tract infection [1] | Abdominal pain [2] | Cardiac disorders (system organ class) [2] | Dry mouth [2] | Infections and infestations (system organ class) [2]
